In US9963464B2, “Macrocyclic compounds” (Bayer Pharma Aktiengesellschaft, priority 2014, dated 2018):

Legend:
CDK9/CycT1 = biological target: T1, CDK9/CycT1 (Homo sapiens, UniProt P50750); assay: CDK9/CycT1 high ATP kinase assay (TR-FRET, Method 1b); format: biochemical
T1 construct: Recombinant full-length His-tagged human CDK9 and CycT1; His; purchased Invitrogen PV4131; host or cells: insect cells
Method: 1b. CDK9/CycT1 High ATP Kinase Assay
CDK9/CycT1-inhibitory activity of compounds of the present invention at a high ATP concentration after preincubation of enzyme and test compounds was quantified employing the CDK9/CycT1 TR-FRET assay as described in the following paragraphs.
Recombinant full-length His-tagged human CDK9 and CycT1, expressed in insect cells and purified by Ni-NTA affinity chromatography, were purchase from Invitrogen (Cat. No PV4131). As substrate for the kinase reaction biotinylated peptide biotin-Ttds-YISPLKSPYKISEG (C-terminus in amid form) was used which can be purchased e.g. from the company JERINI peptide technologies (Berlin, Germany). For the assay 50 nl of a 100 fold concentrated solution of the test compound in DMSO was pipetted into a black low volume 384 well microtiter plate (Greiner Bio-One, Frickenhausen, Germany), 2 μl of a solution of CDK9/CycT1 in aqueous assay buffer [50 mM Tris/HCl pH 8.0, 10 mM MgCl2, 1.0 mM dithiothreitol, 0.1 mM sodium ortho-vanadate, 0.01% (v/v) Nonidet-P40 (Sigma)] were added and the mixture was incubated for 15 min at 22° C. to allow pre-binding of the test compounds to the enzyme before the start of the kinase reaction. […] The concentration of CDK9/CycT1 was adjusted depending of the activity of the enzyme lot and was chosen appropriate to have the assay in the linear range, typical concentrations were in the range of 0.5 μg/mL. The reaction was stopped by the addition of 5 μl of a solution of TR-FRET detection reagents (0.2 μM streptavidine-XL665 [Cisbio Bioassays, Codolet, France] and 1 nM anti-RB(pSer807/pSer811)-antibody from BD Pharmingen [#558389] and 1.2 nM LANCE EU-W1024 labeled anti-mouse IgG antibody [Perkin-Elmer, product no. AD0077]) in an aqueous EDTA-solution (100 mM EDTA, 0.2% (w/v) bovine serum albumin in 100 mM HEPES pH 7.5).
The resulting mixture was incubated 1 h at 22° C. to allow the formation of complex between the phosphorylated biotinylated peptide and the detection reagents. Subsequently the amount of phosphorylated substrate was evaluated by measurement of the resonance energy transfer from the Eu-chelate to the streptavidine-XL. Therefore, the fluorescence emissions at 620 nm and 665 nm after excitation at 350 nm was measured in a HTRF reader, e.g. a Rubystar (BMG Labtechnologies, Offenburg, Germany) or a Viewlux (Perkin-Elmer). The ratio of the emissions at 665 nm and at […] was taken as the measure for the amount of phosphorylated substrate. The data were normalised (enzyme reaction without inhibitor=0% inhibition, all other assay components but no enzyme=100% inhibition).

B16F10 cells = assay: Proliferation assay B16F10; format: cell-based, mouse; details: Mus musculus, B16-F10, 96 h; 4 days, crystal violet; read-out: Inhibition of B16F10 cell proliferation IC50
Method: Cultivated tumour cells (HeLa, human cervical tumour cells, ATCC CCL-2; NCI-H460, human non-small cell lung carcinoma cells, ATCC HTB-177; A2780, human ovarian carcinoma cells, ECACC #93112519; DU 145, hormone-independent human prostate carcinoma cells, ATCC HTB-81; HeLa-MaTu-ADR, multidrug-resistant human cervical carcinoma cells, EPO-GmbH Berlin; Caco-2, human colorectal carcinoma cells, ATCC HTB-37; B16F10, mouse melanoma cells, ATCC CRL-6475) were plated at a density of 5,000 cells/well (DU145, HeLa-MaTu-ADR), 3,000 cells/well (NCI-H460, HeLa), 2,500 cells/well (A2780), 1,500 cells/well (Caco-2), or 1,000 cells/well (B16F10) in a 96-well multititer plate in 200 μL of their respective growth medium supplemented 10% fetal calf serum. After 24 hours, the cells of one plate (zero-point plate) were stained with crystal violet (see below), while the medium of the other plates was replaced by fresh culture medium (200 μl), to which the test substances were added in various concentrations (0 μM, as well as in the range of 0.001-10 μM). The cells were incubated for 4 days in the presence of test substances. Cell proliferation was determined by staining the cells with crystal violet: the cells were fixed by adding 20 μl/measuring point of an 11% glutaric aldehyde solution for 15 minutes at room temperature. After three washing cycles of the fixed cells with water, the plates were dried at room temperature. The cells were stained by adding 100 μl/measuring point of a 0.1% crystal violet solution (pH 3.0). After three washing cycles of the stained cells with water, the plates were dried at room temperature. The dye was dissolved by adding 100 μl/measuring point of a 10% acetic acid solution. The extinction was determined by photometry at a wavelength of 595 nm. The change of cell number, in percent, was calculated by normalization of the measured values to the extinction values of the zero-point plate (=0%) and the extinction of the untreated (0 μm) cells (=100%). The IC50 values (inhibitory concentration at 50% of maximal effect) were determined by means of a 4 parameter fit. Non-adherent MOLM-13 human acute myeloid leukemia cells (DSMZ ACC 554) were seeded at a density of 5,000 cells/well in a 96-well multititer plate in 100 μL of growth medium supplemented 10% fetal calf serum. After 24 hours, cell viability of one plate (zero-point plate) was determined with the Cell Titre-Glo Luminescent Cell Viability Assay (Promega), while 50 μL of test compound containing medium was added to the wells of the other plates (final concentrations in the range of 0.001-1 μM and DMSO controls). Cell viability was assessed after 72-hour exposure with the Cell Titre-Glo Luminescent Cell Viability Assay (Promega). IC50 values (inhibitory concentration at 50% of maximal effect) were determined by means of a 4 parameter fit on measurement data which were normalized to vehicle (DMSO) treated cells (=100%) and measurement readings taken immediately before compound exposure (=0%).

T1 sequence (P50750 whole entry): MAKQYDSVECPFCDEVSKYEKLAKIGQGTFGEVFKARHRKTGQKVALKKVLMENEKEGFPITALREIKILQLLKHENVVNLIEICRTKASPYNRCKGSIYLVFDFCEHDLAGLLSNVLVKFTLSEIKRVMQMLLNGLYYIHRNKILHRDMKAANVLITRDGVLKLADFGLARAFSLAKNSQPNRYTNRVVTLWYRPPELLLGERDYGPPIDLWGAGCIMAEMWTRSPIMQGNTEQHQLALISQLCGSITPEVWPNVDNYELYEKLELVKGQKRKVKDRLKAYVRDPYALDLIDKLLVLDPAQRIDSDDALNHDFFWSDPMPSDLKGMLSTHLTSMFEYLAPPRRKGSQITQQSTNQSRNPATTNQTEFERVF
T1 sequence (O60563 whole entry partner): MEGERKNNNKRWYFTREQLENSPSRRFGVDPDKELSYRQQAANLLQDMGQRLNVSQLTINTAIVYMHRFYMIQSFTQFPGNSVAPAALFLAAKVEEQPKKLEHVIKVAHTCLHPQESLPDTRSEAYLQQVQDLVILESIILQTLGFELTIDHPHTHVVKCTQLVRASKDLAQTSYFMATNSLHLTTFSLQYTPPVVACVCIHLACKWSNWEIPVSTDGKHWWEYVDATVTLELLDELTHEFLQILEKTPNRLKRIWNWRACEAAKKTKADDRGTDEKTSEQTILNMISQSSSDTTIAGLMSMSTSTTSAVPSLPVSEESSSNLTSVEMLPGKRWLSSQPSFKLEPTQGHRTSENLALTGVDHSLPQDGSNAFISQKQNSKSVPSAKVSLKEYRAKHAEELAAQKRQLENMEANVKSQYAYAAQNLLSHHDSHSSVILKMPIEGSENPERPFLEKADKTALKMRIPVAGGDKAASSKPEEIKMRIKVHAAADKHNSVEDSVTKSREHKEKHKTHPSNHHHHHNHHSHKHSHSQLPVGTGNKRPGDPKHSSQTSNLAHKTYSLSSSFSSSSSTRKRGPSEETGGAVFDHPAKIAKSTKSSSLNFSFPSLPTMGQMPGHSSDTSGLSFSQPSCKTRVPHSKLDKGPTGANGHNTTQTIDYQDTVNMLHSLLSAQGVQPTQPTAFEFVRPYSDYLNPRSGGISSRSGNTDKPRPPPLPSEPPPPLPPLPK

SMILES: CSCc1cc2nc(c1)OCCCCOc1cc(F)ccc1-c1cc(ncc1F)N2 [Example 12, 16,20-Difluoro-9-[(methylsulfanyl)methyl]-2,3,4,5-tetrahydro-12H-11,7-(azeno)-13,17-(metheno)-1,6,12,14-benzodioxadiazacyclononadecine]
- IC50 (CDK9/CycT1; Method 1b, 2 mM ATP): 0.0118 µM
- Selectivity high ATP CDK9 over high ATP CDK2: IC50 (high ATP CDK2)/IC50 (high ATP CDK9) (CDK9/CycT1; Methods 1b and 2b, minimal values where CDK9 IC50 is at the assay limit): 75.7
- IC50 (B16F10 cells): 0.343 µM
